Reference: PubChem BioAssay (NCI)
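Tested at 5 concentrations; 48 h exposure; 96-well plates; endpoints linearly interpolated, else capped at highest concentration. The concentration for 50% growth inhibition is given as GI50. Definition used: TGI = concentration required for complete inhibition of growth.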

Tested on: NCI-H226 lung
Test: inhibition of tumour cell growth, NCI panel, 48 h

SMILES | GI50 | TGI
C=CCCCCOc1ccccc1-c1cnc(OCCCCC=C)n1C | 13 µM | 28.5 µM
CC(C)C(=O)OCC1OC(n2c(Br)nc3c(=O)[nH]c(N)nc32)C(OC(=O)C(C)C)C1OC(=O)C(C)C (stereo not drawn) |  | > 100 µM
C[C@H](CCC(=O)O)[C@H]1CC[C@H]2[C@@H]3CC[C@@H]4C[C@H](O)CC[C@]4(C)[C@H]3C[C@H](O)[C@]12C |  | > 100 µM
COC(=O)/C=C(\C)CC(O)/C=C(\C)CCC=C(C)C (stereo not drawn) |  | > 100 µM

Tested on: NCI-H23 lung
Test: inhibition of tumour cell growth, NCI panel, 48 h

SMILES | TGI | GI50
CCCCCCOC(=O)/C=C/[C@]1(CO)C/C(=C/CC(C(C)C)C(C)C)C(=O)O1 | 25 µM | 
Cc1nc2c(nc1C)-c1[nH]c3c(c1C(=O)C2=O)CCCC3=O | 5.63 µM | 
Cn1c(=O)c2c(nc(Cc3ccccc3)n2CC(=O)O)n(C)c1=O | > 100 µM | 
C=CCCCCOc1ccccc1-c1cnc(OCCCCC=C)n1C | 26.8 µM | 5.04 µM
C[C@H](CCC(=O)O)[C@H]1CC[C@H]2[C@@H]3CC[C@@H]4C[C@H](O)CC[C@]4(C)[C@H]3C[C@H](O)[C@]12C | > 100 µM | 
COC(=O)/C=C(\C)CC(O)/C=C(\C)CCC=C(C)C (stereo not drawn) | 74.9 µM | 

Tested on: NCI-H460 lung
Test: inhibition of tumour cell growth, NCI panel, 48 h

SMILES | TGI
CCCCCCOC(=O)/C=C/[C@]1(CO)C/C(=C/CC(C(C)C)C(C)C)C(=O)O1 | 20.5 µM
Cc1nc2c(nc1C)-c1[nH]c3c(c1C(=O)C2=O)CCCC3=O | 16.2 µM
Cn1c(=O)c2c(nc(Cc3ccccc3)n2CC(=O)O)n(C)c1=O | > 100 µM
CC(C)C(=O)OCC1OC(n2c(Br)nc3c(=O)[nH]c(N)nc32)C(OC(=O)C(C)C)C1OC(=O)C(C)C (stereo not drawn) | 58 µM
C[C@H](CCC(=O)O)[C@H]1CC[C@H]2[C@@H]3CC[C@@H]4C[C@H](O)CC[C@]4(C)[C@H]3C[C@H](O)[C@]12C | > 100 µM
COC(=O)/C=C(\C)CC(O)/C=C(\C)CCC=C(C)C (stereo not drawn) | > 100 µM

Tested on: NCI-H522 lung
Test: inhibition of tumour cell growth, NCI panel, 48 h

SMILES | TGI | GI50
CCCCCCOC(=O)/C=C/[C@]1(CO)C/C(=C/CC(C(C)C)C(C)C)C(=O)O1 | 25.9 µM | 
Cc1nc2c(nc1C)-c1[nH]c3c(c1C(=O)C2=O)CCCC3=O | 4.42 µM | 
Cn1c(=O)c2c(nc(Cc3ccccc3)n2CC(=O)O)n(C)c1=O | > 100 µM | 
C=CCCCCOc1ccccc1-c1cnc(OCCCCC=C)n1C | 6.72 µM | 2.59 µM
CC(C)C(=O)OCC1OC(n2c(Br)nc3c(=O)[nH]c(N)nc32)C(OC(=O)C(C)C)C1OC(=O)C(C)C (stereo not drawn) | > 100 µM | 
C[C@H](CCC(=O)O)[C@H]1CC[C@H]2[C@@H]3CC[C@@H]4C[C@H](O)CC[C@]4(C)[C@H]3C[C@H](O)[C@]12C | 86.7 µM | 

Tested on: NCI/ADR-RES ovarian
Test: inhibition of tumour cell growth, NCI panel, 48 h

SMILES | TGI | GI50
CCCCCCOC(=O)/C=C/[C@]1(CO)C/C(=C/CC(C(C)C)C(C)C)C(=O)O1 | 28.1 µM | 
Cc1nc2c(nc1C)-c1[nH]c3c(c1C(=O)C2=O)CCCC3=O | 6.47 µM | 
Cn1c(=O)c2c(nc(Cc3ccccc3)n2CC(=O)O)n(C)c1=O | > 100 µM | 
C=CCCCCOc1ccccc1-c1cnc(OCCCCC=C)n1C | 5.96 µM | 2.29 µM
CC(C)C(=O)OCC1OC(n2c(Br)nc3c(=O)[nH]c(N)nc32)C(OC(=O)C(C)C)C1OC(=O)C(C)C (stereo not drawn) | > 100 µM | 
C[C@H](CCC(=O)O)[C@H]1CC[C@H]2[C@@H]3CC[C@@H]4C[C@H](O)CC[C@]4(C)[C@H]3C[C@H](O)[C@]12C | > 100 µM | 
COC(=O)/C=C(\C)CC(O)/C=C(\C)CCC=C(C)C (stereo not drawn) | 67.9 µM | 

Tested on: OVCAR-3 ovarian
Test: inhibition of tumour cell growth, NCI panel, 48 h

SMILES | TGI | GI50
CCCCCCOC(=O)/C=C/[C@]1(CO)C/C(=C/CC(C(C)C)C(C)C)C(=O)O1 | 29.8 µM | 
Cc1nc2c(nc1C)-c1[nH]c3c(c1C(=O)C2=O)CCCC3=O | 2.07 µM | 
Cn1c(=O)c2c(nc(Cc3ccccc3)n2CC(=O)O)n(C)c1=O | > 100 µM | 
C=CCCCCOc1ccccc1-c1cnc(OCCCCC=C)n1C | 10.1 µM | 3.21 µM
CC(C)C(=O)OCC1OC(n2c(Br)nc3c(=O)[nH]c(N)nc32)C(OC(=O)C(C)C)C1OC(=O)C(C)C (stereo not drawn) | > 100 µM | 
C[C@H](CCC(=O)O)[C@H]1CC[C@H]2[C@@H]3CC[C@@H]4C[C@H](O)CC[C@]4(C)[C@H]3C[C@H](O)[C@]12C | 52.1 µM | 
COC(=O)/C=C(\C)CC(O)/C=C(\C)CCC=C(C)C (stereo not drawn) | 87.7 µM | 

Tested on: OVCAR-4 ovarian
Test: inhibition of tumour cell growth, NCI panel, 48 h

SMILES | TGI | GI50
CCCCCCOC(=O)/C=C/[C@]1(CO)C/C(=C/CC(C(C)C)C(C)C)C(=O)O1 | 36 µM | 
Cc1nc2c(nc1C)-c1[nH]c3c(c1C(=O)C2=O)CCCC3=O | 3.04 µM | 
Cn1c(=O)c2c(nc(Cc3ccccc3)n2CC(=O)O)n(C)c1=O | > 100 µM | 
C=CCCCCOc1ccccc1-c1cnc(OCCCCC=C)n1C | 50.7 µM | 10.3 µM
C[C@H](CCC(=O)O)[C@H]1CC[C@H]2[C@@H]3CC[C@@H]4C[C@H](O)CC[C@]4(C)[C@H]3C[C@H](O)[C@]12C | > 100 µM | 
COC(=O)/C=C(\C)CC(O)/C=C(\C)CCC=C(C)C (stereo not drawn) | > 100 µM | 

Tested on: OVCAR-5 ovarian
Test: inhibition of tumour cell growth, NCI panel, 48 h

SMILES | TGI | GI50
CCCCCCOC(=O)/C=C/[C@]1(CO)C/C(=C/CC(C(C)C)C(C)C)C(=O)O1 | 25.6 µM | 
Cc1nc2c(nc1C)-c1[nH]c3c(c1C(=O)C2=O)CCCC3=O | 4.7 µM | 
Cn1c(=O)c2c(nc(Cc3ccccc3)n2CC(=O)O)n(C)c1=O | > 100 µM | 
C=CCCCCOc1ccccc1-c1cnc(OCCCCC=C)n1C | 23.1 µM | 5.22 µM
